Where a name gives a salt, the structure may show the parent alone.

Experiment [1] concerns the target T1, recombinant human Dopamine Subtype D2s receptors (Homo sapiens, UniProt P14416).
T1 construct: purchased Perkin Elmer
The experiment is described as follows: Dopamine D2 selectivity binding assay ([3H]-spiperone). Particulars: inhibition of [3H]-spiperone (0.16 nM) binding; read-out: D2 bind pIC50 (converted). On the procedure:
Membranes containing recombinant human Dopamine Subtype D2s receptors were obtained from Perkin Elmer. These were diluted in Assay Buffer (50 mM HEPES, 1 mM EDTA, 120 mM NaCl, 0.1% gelatin, pH 7.4) to provide a final concentration of membranes that gave a clear window between maximum and minimum specific binding.
(§1) Assays were performed in U-bottomed 96-well polypropylene plates. 30 μL [^3H]-spiperone (0.16 nM final concentration) and 30 μL of test compound (10× final concentration) were added to each test well. For each assay plate 8 replicates were obtained for [^3H]-spiperone binding in the presence of 30 μL vehicle (10% (v/v) DMSO in Assay Buffer; defining maximum binding) or 30 μL Haloperidol (10 μM final concentration; defining non-specific binding (NSB)). Membranes were then added to achieve a final volume of 300 μL. The plates were incubated for 2 hours at room temperature and then filtered onto PEI coated GF/B filter plates, pre-soaked for 1 hour in Assay Buffer, using a 96-well plate Tomtec cell harvester. Five washes with 250 μL wash buffer (50 mM HEPES, 1 mM EDTA, 120 mM NaCl, pH 7.4) were performed at 4° C. to remove unbound radioactivity. The plates were dried then sealed from underneath using Packard plate sealers and MicroScint-O (50 μL) was added to each well. The plates were sealed (TopSeal A) and filter-bound radioactivity was measured with a scintillation counter (TopCount, Packard BioScience) using a 3-minute counting protocol.
Total specific binding (B0) was determined by subtracting the mean NSB from the mean maximum binding. NSB values were also subtracted from values from all other wells. […] Data was fitted to a four parameter logistic equation to determine the compound potency, which was expressed as pIC50 (negative log molar concentration inducing 50% inhibition of [^3H]-spiperone binding).

The target of another experiment is T2, Adrenergic β2 (Homo sapiens, UniProt P07550).
T2 construct: Adherent H292 cells were removed from tissue culture flasks; endogenous in cells; host or cells: H292 cells
T2 sequence (P07550 whole entry): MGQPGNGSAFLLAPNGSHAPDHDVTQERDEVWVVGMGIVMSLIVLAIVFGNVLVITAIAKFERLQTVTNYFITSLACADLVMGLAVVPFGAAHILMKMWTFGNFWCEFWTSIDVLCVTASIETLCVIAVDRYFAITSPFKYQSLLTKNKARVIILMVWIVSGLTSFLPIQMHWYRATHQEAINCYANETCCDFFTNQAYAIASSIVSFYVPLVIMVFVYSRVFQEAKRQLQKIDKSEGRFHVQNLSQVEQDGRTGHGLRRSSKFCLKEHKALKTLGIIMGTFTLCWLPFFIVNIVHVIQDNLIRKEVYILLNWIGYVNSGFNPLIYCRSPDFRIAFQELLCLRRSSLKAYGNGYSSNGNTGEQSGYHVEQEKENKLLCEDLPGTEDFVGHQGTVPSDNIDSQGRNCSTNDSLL
The experiment can be described thus: Adrenergic β2 mediated cAMP production in H292 cells. Particulars: for EC50: H292 cells, cAMP by AlphaScreen, 60 minutes at room temperature, rolipram 300 μM, read-out: β2 pEC50 (converted); for β2 Int Act: Intrinsic Activity as a fraction relative to the maximum activity determined for formoterol. The class given is cell-based. On the procedure: Adrenergic β2 mediated cAMP production
H292 cells were grown in 225 cm2 flasks incubator at 37° C., 5% CO2 in RPMI medium containing, 10% (v/v) FBS (foetal bovine serum) and 2 mM L-glutamine.
Adherent H292 cells were removed from tissue culture flasks by treatment with Accutase™ cell detachment solution for 15 minutes. Flasks were incubated for 15 minutes in a humidified incubator at 37° C., 5% CO2. Detached cells were re-suspended in RPMI media (containing 10% (v/v) FBS and 2 mM L-glutamine) at 0.05×10^6 cells per mL. 5000 cells in 100 μL were added to each well of a tissue-culture-treated 96-well plate and the cells incubated overnight in a humidified incubator at 37° C., 5% CO2. The culture media was removed and cells were washed twice with 100 μL assay buffer and replaced with 50 μL assay buffer (HBSS solution containing 10 mM HEPES pH7.4 and 5 mM glucose). Cells were rested at room temperature for 20 minutes after which time 25 μL of rolipram (1.2 mM made up in assay buffer containing 2.4% (v/v) dimethylsulphoxide) was added. Cells were incubated with rolipram for 10 minutes after which time test compounds were added and the cells were incubated for 60 minutes at room temperature. The final rolipram concentration in the assay was 300 μM and final vehicle concentration was 1.6% (v/v) dimethylsulphoxide. The reaction was stopped by removing supernatants, washing once with 100 μL assay buffer and replacing with 50 μL lysis buffer. The cell monolayer was frozen at −80° C. for 30 minutes (or overnight).
The concentration of cAMP (cyclic adenosine monophosphate) in the cell lysate was determined using AlphaScreen™ methodology. The frozen cell plate was thawed for 20 minutes on a plate shaker then 10 μL of the cell lysate was transferred to a 96-well white plate. 40 μL of mixed AlphaScreen™ detection beads pre-incubated with biotinylated cAMP, was added to each well and the plate incubated at room temperature for 10 hours in the dark. The AlphaScreen™ signal was measured using an EnVision spectrophotometer (Perkin-Elmer Inc.) with the recommended manufacturer's settings. cAMP concentrations were determined by reference to a calibration curve determined in the same experiment using standard cAMP concentrations. Concentration response curves for agonists were constructed and data was fitted to a four parameter logistic equation to determine both the pEC50 and Intrinsic Activity. Intrinsic Activity was expressed as a fraction relative to the maximum activity determined for formoterol in each experiment.

Experiment [2] has as its target T3, recombinant human α1D receptor (Homo sapiens, UniProt P25100).
T3 construct: expressed in transfected cells; host or cells: HEK293
T3 sequence (P25100 1-572): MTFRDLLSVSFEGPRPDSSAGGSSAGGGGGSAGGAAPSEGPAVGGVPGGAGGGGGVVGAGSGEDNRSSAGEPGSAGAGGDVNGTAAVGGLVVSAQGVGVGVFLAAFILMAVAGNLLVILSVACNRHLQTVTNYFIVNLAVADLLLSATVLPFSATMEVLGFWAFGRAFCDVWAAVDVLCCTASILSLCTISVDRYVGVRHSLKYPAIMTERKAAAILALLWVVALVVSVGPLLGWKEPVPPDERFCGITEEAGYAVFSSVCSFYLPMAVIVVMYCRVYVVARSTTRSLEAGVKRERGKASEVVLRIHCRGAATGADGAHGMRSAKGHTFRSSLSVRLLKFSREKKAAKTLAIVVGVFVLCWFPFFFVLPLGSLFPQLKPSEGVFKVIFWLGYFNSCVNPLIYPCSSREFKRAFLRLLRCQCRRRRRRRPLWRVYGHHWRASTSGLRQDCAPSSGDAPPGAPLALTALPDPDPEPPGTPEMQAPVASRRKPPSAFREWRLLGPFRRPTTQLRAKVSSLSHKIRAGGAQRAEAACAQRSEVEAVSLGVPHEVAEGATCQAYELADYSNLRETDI
The experiment can be described thus: Adrenergic α1D selectivity binding assay ([3H]-prazosin). Particulars: inhibition of [3H]-prazosin (0.3 nM) binding, HEK293 membranes; read-out: α1 bind pIC50 (converted). The method, then: Membranes were prepared from human embryonic kidney 293 (HEK293) cells expressing recombinant human α1D receptor. These were diluted in Assay Buffer (50 mM HEPES, 1 mM EDTA, 0.1% gelatin, pH 7.4) to provide a final concentration of membranes that gave a clear window between maximum and minimum specific binding.
as §1, with “10” for “30”, “[^3H]-prazosin (0.3” for “[^3H]-spiperone (0.16”, “[^3H]-prazosin” for “[^3H]-spiperone”, “BMY7378” for “Haloperidol”, “100” for “300”, “EDTA,” for “EDTA, 120 mM NaCl,”
Total specific binding (B0) was determined by subtracting the mean NSB from the mean maximum binding. NSB values were also subtracted from values from all other wells. […] Data was fitted to a four parameter logistic equation to determine the compound potency, which was expressed as pIC50 (negative log molar concentration inducing 50% inhibition of [^3H]-prazosin binding).

T1 sequence (P14416 1-414 isoform P14416-2): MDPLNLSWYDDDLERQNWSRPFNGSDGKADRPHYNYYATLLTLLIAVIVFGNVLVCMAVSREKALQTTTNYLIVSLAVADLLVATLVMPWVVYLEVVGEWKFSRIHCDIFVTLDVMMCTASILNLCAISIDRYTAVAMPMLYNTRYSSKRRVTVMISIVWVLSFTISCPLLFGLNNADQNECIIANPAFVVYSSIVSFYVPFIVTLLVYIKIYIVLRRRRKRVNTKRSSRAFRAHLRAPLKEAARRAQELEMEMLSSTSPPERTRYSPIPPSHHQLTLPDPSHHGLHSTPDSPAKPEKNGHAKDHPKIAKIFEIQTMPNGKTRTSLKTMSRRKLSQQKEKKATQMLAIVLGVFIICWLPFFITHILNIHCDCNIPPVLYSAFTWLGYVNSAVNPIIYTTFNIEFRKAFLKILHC

Consider `CC(C)N(CCNCCc1ccc(O)c2[nH]c(=O)sc12)C(=O)CCNCCc1ccccc1` [Example 1, N-(2-{[2-(4-Hydroxy-2-oxo-2,3-dihydro-1,3-benzothiazol-7-yl)ethyl]amino}ethyl)-N-isopropyl-N^3-(2-phenylethyl)-β-alaninamide bis-trifluoroacetic acid salt], for which the IC50 in experiment [1] was 0.398 µM; in experiment [2] it was 0.251 µM. The EC50 on Adrenergic β2 was 0.02 µM. Also, on Adrenergic β2, the “β2 Int Act” value is listed as 0.78.
As to `CC(C)N(CCNCCc1ccc(O)c2[nH]c(=O)sc12)C(=O)CCNCCc1ccc(Cl)cc1` [Example 3, N^3-[2-(4-Chlorophenyl)ethyl]-N-(2-{[2-(4-hydroxy-2-oxo-2,3-dihydro-1,3-benzothiazol-7-yl)ethyl]amino}ethyl)-N-isopropyl-β-alaninamide bis-trifluoroacetic acid salt], the IC50 is 0.794 µM in experiment [1] and 0.251 µM in experiment [2]. Besides, the EC50 on Adrenergic β2 was 0.0398 µM. For the same compound, the “β2 Int Act” value at Adrenergic β2 was 0.34.
Consider `Cc1cccc(CCNCCC(=O)N(CCNCCc2ccc(O)c3[nH]c(=O)sc23)CC(C)(C)C)c1` [Example 10, N-(2,2-Dimethylpropyl)-N-(2-{[2-(4-hydroxy-2-oxo-2,3-dihydro-1,3-benzothiazol-7-yl)ethyl]amino}ethyl)-N^3-[2-(3-methylphenyl)ethyl]-β-alaninamide bis-trifluoroacetic acid salt], for which the IC50 in experiment [1] was 0.794 µM. Moreover, at Adrenergic β2, the EC50 is 0.00501 µM and the “β2 Int Act” value is recorded as 0.69. For the same compound, the IC50 in experiment [2] was 0.251 µM.
Taken in the same sequence, the figures for `C[C@H](CNCCC(=O)N(CCNCCc1ccc(O)c2[nH]c(=O)sc12)C1CCCCC1)c1ccccc1` [Example 18, N-Cyclohexyl-N-(2-{[2-(4-hydroxy-2-oxo-2,3-dihydro-1,3-benzothiazol-7-yl)ethyl]amino}ethyl)-N^3-[(2S)-2-phenylpropyl]-β-alaninamide bis-trifluoroacetic acid salt] were 0.794 µM, 0.00398 µM, 0.89 and 0.2 µM.
For the compound `CC(C)(Cc1ccccc1)NCCC(=O)N(CCNCCc1ccc(O)c2[nH]c(=O)sc12)C1CCCCC1` [Example 19, N-Cyclohexyl-N^3-(1,1-dimethyl-2-phenylethyl)-N-(2-{[2-(4-hydroxy-2-oxo-2,3-dihydro-1,3-benzothiazol-7-yl)ethyl]amino}ethyl)-β-alaninamide bis-trifluoroacetic acid salt], the IC50 in experiment [1] is 1 µM. For the same compound, at Adrenergic β2, the EC50 was 0.0398 µM and the “β2 Int Act” value came out at 0.70. Also, the IC50 in experiment [2] was 0.398 µM.
For `C[C@@H](CNCCC(=O)N(CCNCCc1ccc(O)c2[nH]c(=O)sc12)C1CCCCC1)c1ccccc1` [Example 20, N-Cyclohexyl-N-(2-{[2-(4-hydroxy-2-oxo-2,3-dihydro-1,3-benzothiazol-7-yl)ethyl]amino}ethyl)-N^3-[(2R)-2-phenylpropyl]-β-alaninamide bis-trifluoroacetic acid salt], the IC50 in experiment [1] is 0.794 µM. On Adrenergic β2, the EC50 was 0.01 µM and the “β2 Int Act” value is 0.97. Further, the IC50 in experiment [2] is 0.251 µM.
Taken in the same sequence, the figures for `CC(C)(CNCCC(=O)N(CCNCCc1ccc(O)c2[nH]c(=O)sc12)C1CCCCC1)c1ccccc1` [Example 21, N-Cyclohexyl-N-(2-{[2-(4-hydroxy-2-oxo-2,3-dihydro-1,3-benzothiazol-7-yl)ethyl]amino}ethyl)-N^3-(2-methyl-2-phenylpropyl)-β-alaninamide bis-trifluoroacetic acid salt] were 3.98 µM, 0.0316 µM, 0.85 and 0.251 µM.
With `O=C(CCNCCc1ccccn1)N(CCNCCc1ccc(O)c2[nH]c(=O)sc12)C1CCCCC1` [Example 33, N-Cyclohexyl-N-(2-{[2-(4-hydroxy-2-oxo-2,3-dihydro-1,3-benzothiazol-7-yl)ethyl]amino}ethyl)-N^3-(2-pyridin-2-ylethyl)-β-alaninamide bis-trifluoroacetic acid salt], the IC50 in experiment [1] was 0.631 µM. In addition, at Adrenergic β2, the EC50 was 0.0158 µM and the “β2 Int Act” value was 0.78. For the same compound, the IC50 in experiment [2] was 0.1 µM.
Turning to `CC(=O)OCC(C)(C)CN(CCNCCc1ccc(O)c2[nH]c(=O)sc12)C(=O)CCNCCc1ccc(Cl)cc1` [Example 39, 3-[{N-[2-(4-Chlorophenyl)ethyl]-β-alanyl}(2-{[2-(4-hydroxy-2-oxo-2,3-dihydro-1,3-benzothiazol-7-yl)ethyl]amino}ethyl)amino]-2,2-dimethylpropyl acetate diacetic acid salt], the IC50 in experiment [1] was 1.26 µM. At Adrenergic β2, the EC50 is 0.251 µM and the “β2 Int Act” value amounted to 0.58. Besides, the IC50 in experiment [2] is 0.631 µM.
